Reference: US20250276962A1, “CONTRACEPTIVE COMPOUNDS AND METHODS” (Regents of the University of Minnesota, priority 2021, published 2025)
Converted amounts (≈) assume the structure as drawn.

Key:
RARα = target: T1, RARα (Homo sapiens, UniProt P10276); assay: Transactivation (luciferase) antagonist assay, RARα; type: cell-based; settings: vs EC80 (180 nM) 9-cis-RA, luciferase readout; read-out: RARα Antagonism IC50
T1 construct: host or cells: unnamed reporter cells
T1 sequence (P10276 1-462): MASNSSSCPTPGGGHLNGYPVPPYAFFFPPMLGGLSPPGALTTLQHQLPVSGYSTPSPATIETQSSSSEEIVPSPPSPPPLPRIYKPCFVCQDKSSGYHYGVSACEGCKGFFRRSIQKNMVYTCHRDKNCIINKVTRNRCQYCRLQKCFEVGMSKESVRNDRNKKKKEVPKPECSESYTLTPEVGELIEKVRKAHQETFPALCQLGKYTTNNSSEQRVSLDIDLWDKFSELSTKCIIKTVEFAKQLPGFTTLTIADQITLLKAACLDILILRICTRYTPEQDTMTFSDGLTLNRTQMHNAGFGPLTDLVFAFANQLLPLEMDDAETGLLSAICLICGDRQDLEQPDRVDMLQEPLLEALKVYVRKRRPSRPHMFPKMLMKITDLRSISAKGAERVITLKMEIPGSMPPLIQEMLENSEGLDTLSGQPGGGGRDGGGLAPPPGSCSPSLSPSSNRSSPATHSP
Protocol: (§1) Control wells containing cells without added agonist defined the background signal values. […] Cell suspension (30 μL) was added to each well and the assay plate was incubated overnight in a 5% CO2 incubator at 37° C. Luciferase detection reagent (15 μL) was then added and the plate was incubated at RT for 30 minutes. Luminescence was quantified using an EnSpire plate reader (PerkinElmer, Waltham, MA). IC50 values were determined by fitting dose response data using the four-parameter logistic equation in GraphPad Prism 7.0.

RARβ = target: T2, RARβ (Homo sapiens, UniProt P10826); assay: Transactivation (luciferase) antagonist assay, RARβ; type: cell-based; settings: vs EC80 (8 nM) ATRA, luciferase readout; read-out: RARβ Antagonism IC50
T2 construct: host or cells: unnamed reporter cells
T2 sequence (P10826 1-455): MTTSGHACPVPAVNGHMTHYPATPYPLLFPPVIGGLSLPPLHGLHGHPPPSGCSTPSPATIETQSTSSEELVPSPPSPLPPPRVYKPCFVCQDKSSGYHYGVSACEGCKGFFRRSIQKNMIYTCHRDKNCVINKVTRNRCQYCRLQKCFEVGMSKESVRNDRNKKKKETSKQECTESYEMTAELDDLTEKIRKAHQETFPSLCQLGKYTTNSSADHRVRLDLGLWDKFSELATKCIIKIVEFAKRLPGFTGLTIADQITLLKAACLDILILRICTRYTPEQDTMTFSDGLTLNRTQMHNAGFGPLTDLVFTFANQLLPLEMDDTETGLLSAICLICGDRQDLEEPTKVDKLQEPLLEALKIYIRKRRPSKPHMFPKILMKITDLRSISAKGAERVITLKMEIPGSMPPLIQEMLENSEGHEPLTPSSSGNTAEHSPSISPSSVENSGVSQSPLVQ
Protocol: as §1

RARγ = target: T3, RARγ (Homo sapiens, UniProt P13631); assay: Transactivation (luciferase) antagonist assay, RARγ; type: cell-based; settings: vs EC80 (8 nM) ATRA, luciferase readout; read-out: RARγ Antagonism IC50
T3 construct: host or cells: unnamed reporter cells
T3 sequence (P13631 1-454): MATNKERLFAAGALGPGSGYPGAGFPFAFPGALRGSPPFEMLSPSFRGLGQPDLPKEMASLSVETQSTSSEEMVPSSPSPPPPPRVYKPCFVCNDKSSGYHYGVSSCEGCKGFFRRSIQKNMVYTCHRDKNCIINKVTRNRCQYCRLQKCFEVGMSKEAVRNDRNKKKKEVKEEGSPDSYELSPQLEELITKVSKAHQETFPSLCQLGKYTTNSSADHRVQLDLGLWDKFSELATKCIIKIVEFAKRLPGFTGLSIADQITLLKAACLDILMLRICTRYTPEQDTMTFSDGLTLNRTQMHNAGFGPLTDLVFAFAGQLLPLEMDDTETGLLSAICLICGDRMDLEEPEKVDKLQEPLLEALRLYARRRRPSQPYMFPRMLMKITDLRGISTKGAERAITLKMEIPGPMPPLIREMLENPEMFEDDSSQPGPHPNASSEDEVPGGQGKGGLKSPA
Protocol: as §1

[1] = Solubility in PBS at pH 7.4; type: physicochemical

Structure (SMILES)	IC50 (RARα) [µM]	IC50 (RARβ) [µM]	IC50 (RARγ) [µM]	solubility [1] [µM]
Cc1ccc(C2=CC(C)(C)Oc3ccc(-c4ccc(-c5ccc(C(=O)O)c(F)c5)[nH]4)cc32)cc1	0.1			
Cc1ccc(C2=CC(C)(C)Oc3ccc(-c4ccc(-c5cc(F)c(C(=O)O)c(F)c5)[nH]4)cc32)cc1	0.47			
COc1cc2c(cc1-c1ccc(-c3ccc(C(=O)O)cc3)[nH]1)C(c1ccc(C)cc1)=CC(C)(C)O2	2			
CC(=O)[C@H]1CC[C@H]2[C@@H]3CCC4=CC(=O)CC[C@]4(C)[C@H]3CC[C@]12C [Progesterone, reference compound]				14.02 (≈ 4.41 µg/mL)

Continued by falling IC50 (RARα), values first:

IC50 (RARα) [µM]	IC50 (RARβ) [µM]	IC50 (RARγ) [µM]	Structure (SMILES)	solubility [1] [µM]
0.094	> 3	> 3	Cc1ccc(C2=CC(C)(C)Oc3ccc(-c4ccc(-c5ccc(C(=O)O)c(O)c5)[nH]4)cc32)cc1	
0.087	> 3	> 3	Cc1ccc(C2=CC(C)(C)Oc3ccc(-c4ccc(-c5ccc(C(=O)O)c(C)c5)[nH]4)cc32)cc1	
0.015	> 3.3	> 3.3	CC1(C)C=C(c2ccccc2)c2cc(-c3ccc(-c4ccc(C(=O)O)cc4)[nH]3)ccc2O1	
